According to PubChem BioAssay (NCI):
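Results reflect a 48-hour exposure of cells in 96-well plates to compound at five concentrations. GI50 is the concentration that inhibits growth by half. TGI is the concentration that stops growth completely.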

Key:
Assay in all cases: DTP human tumour cell line panel, 48 h
COLO 205 colon = system: COLO 205 colon
NCI-H522 lung = system: NCI-H522 lung
SNB-19 CNS = system: SNB-19 CNS
HT29 colon = system: HT29 colon
LOX IMVI melanoma = system: LOX IMVI melanoma
NCI-H23 lung = system: NCI-H23 lung

Structure (SMILES) | TGI (COLO 205 colon) | TGI (NCI-H522 lung) | TGI (SNB-19 CNS) | TGI (HT29 colon) | TGI (LOX IMVI melanoma) | TGI (NCI-H23 lung) | GI50 (COLO 205 colon) | GI50 (NCI-H522 lung) | GI50 (SNB-19 CNS) | GI50 (HT29 colon) | GI50 (LOX IMVI melanoma) | GI50 (NCI-H23 lung)
COC(=O)C1=C(C(=O)OC)C2OC1c1cc3ccccc3cc12 | 3.39 µM | 2.9 µM | 33.5 µM | 20.4 µM | 30.5 µM | 11.8 µM | – | – | – | – | – | –
O=C(NNC(=S)Nc1ccccc1)c1ccccn1 | > 100 µM | > 100 µM | > 100 µM | > 100 µM | > 100 µM | > 100 µM | 4.05 µM | 5.99 µM | 2.95 µM | 4.17 µM | 2.31 µM | 6.95 µM
CCOC(=O)c1cc(-c2ccc(OC)c(OC)c2)[nH]c1N/N=C/c1c(Cl)cccc1Cl | > 100 µM | 30 µM | 34.2 µM | 6.28 µM | 20.5 µM | 14 µM | 2.9 µM | 2.27 µM | 2.6 µM | 0.913 µM | 3.6 µM | 2.97 µM
CC1CCc2c(c(CC3CC(=O)NC(=O)C3)nn2-c2ccccc2)C1 (stereo unspecified) | > 100 µM | – | > 100 µM | > 100 µM | > 100 µM | > 100 µM | – | – | – | – | – | –
C=C1C(=O)OC2CC3(C)CCCC(C)C3=CC12 (stereo unspecified) | 2.56 µM | 3.97 µM | 25.8 µM | 14.2 µM | 4.42 µM | 19.9 µM | – | – | – | – | – | –
CC(O)CN1c2ccccc2Sc2ccc(Cl)cc21 (stereo unspecified) | > 10 µM | > 10 µM | > 10 µM | > 10 µM | > 10 µM | > 10 µM | – | – | – | – | – | –
O=C(Nc1nc(-c2ccc(Cl)cc2)nc2c1sc(=S)n2-c1ccccc1)C(F)(F)F | 32.6 µM | 39.8 µM | 37.5 µM | > 100 µM | 6.46 µM | 26.8 µM | 3.54 µM | 4.72 µM | 7.18 µM | 3.73 µM | 2.43 µM | 5.45 µM
C=C1CCC2C3(C)COC(c4ccc(Cl)cc4)OC3CCC2(C)C1/C=C/C1=CCOC1=O (stereo unspecified) | – | 36.7 µM | 88.4 µM | > 100 µM | 17.6 µM | > 100 µM | – | 1.11 µM | 15.9 µM | 5.52 µM | 0.985 µM | 3.19 µM
CC1=NN(C(=O)c2ccncc2)C(=O)C1N=Nc1ccc2ccccc2c1 (stereo unspecified) | > 100 µM | > 100 µM | > 100 µM | > 100 µM | > 100 µM | > 100 µM | – | – | – | – | – | –
C/C=C(/C)C(=O)OC1C=C(CO)C(=O)C(OC(=O)C(C)(O)C(C)Cl)C1C(C)C (stereo unspecified) | 2.85 µM | 2.37 µM | 2.91 µM | 3.56 µM | 2.82 µM | 4.42 µM | 1.3 µM | 0.603 µM | 1.48 µM | 1.47 µM | 1.31 µM | 1.84 µM
CCCN1C(=O)/C(=C/c2ccc(O)cc2)SC1=Nc1ccc(OC)cc1 | > 100 µM | > 100 µM | 45.5 µM | 48.4 µM | 30.8 µM | 32.4 µM | 36.6 µM | 39.9 µM | 19.6 µM | 22.1 µM | 15.4 µM | 16.2 µM
CSc1ccc(C2=NN(C(C)=O)C(c3ccc(F)cc3)C2)cc1 (stereo unspecified) | 31.4 µM | 34.5 µM | 37 µM | 46 µM | 23.2 µM | 34.9 µM | 13.2 µM | 14.7 µM | 8.19 µM | 15.2 µM | 10.8 µM | 16.5 µM
CC(=O)O[C@H]1C(=O)[C@@]2(C)[C@H]([C@H](OC(=O)c3ccccc3)[C@@]3(O)C[C@H](O)C(C)=C1C3(C)C)[C@]1(OC(C)=O)CO[C@@H]1C[C@@H]2O | 81.5 µM | 44.1 µM | > 100 µM | 86.6 µM | > 100 µM | > 100 µM | – | – | – | – | – | –
COc1ccc(/C=C2\CC(C)CC3C2=NN(c2ccccc2)C3c2ccc(OC)c(OC)c2)cc1OC (stereo unspecified) | > 100 µM | > 100 µM | > 100 µM | 16.1 µM | 4.8 µM | 27.2 µM | 4.67 µM | 4.83 µM | 7.39 µM | 3.18 µM | 2.19 µM | 4.49 µM
Cc1cn2c(/C=C3/C(=O)Nc4ccc(F)cc43)c(C)nc2s1 | > 50 µM | 18.7 µM | > 50 µM | 14.9 µM | > 50 µM | > 50 µM | 1.91 µM | 3.22 µM | 5.56 µM | 1.68 µM | 10.3 µM | 7.85 µM
COc1ccc(CNc2cnc3cc(N)cc(N)c3n2)cc1 | > 100 µM | 44.1 µM | > 100 µM | > 100 µM | 32 µM | 29.1 µM | 33.6 µM | 17.9 µM | 52.3 µM | 42 µM | 17.4 µM | 15.1 µM
CC[C@@H](C)Nc1cc(C(=O)NC2CC3CCC(C2)N3c2ccc(C(=O)C3CC3)cn2)c(C)cc1C(N)=O (stereo partly specified) | 11.6 µM | 41.8 µM | > 100 µM | 15.9 µM | 0.102 µM | > 100 µM | 0.0182 µM | 0.0451 µM | 0.0604 µM | 0.0111 µM | 0.0301 µM | 0.0589 µM
CC(C)(C)NC/C(=C\c1ccccc1)C(=O)c1ccccc1 | 2.88 µM | 1.77 µM | 18.4 µM | 3.52 µM | 2.89 µM | 5.02 µM | 1.34 µM | 0.371 µM | 4.27 µM | 0.9 µM | 1.3 µM | 1.77 µM
O=S(=O)(Nc1ccc2ccccc2c1)c1ccc(-c2cnc(C3CC3)o2)cc1 | 9.22 µM | 14.5 µM | > 100 µM | 17.6 µM | 17.1 µM | 22.5 µM | 1.79 µM | 0.766 µM | 1.49 µM | 0.429 µM | 0.725 µM | 3.38 µM
O=C(Cn1c(C(=O)c2ccccc2)nc2ccccc21)c1ccc(F)cc1 | > 64.5 µM | > 62.9 µM | > 100 µM | > 100 µM | > 100 µM | > 100 µM | 17.9 µM | 5.92 µM | 25.2 µM | 3.51 µM | 7.26 µM | 19.4 µM
